Measured values reported in patent US20240174608A1, “COMPOUNDS FOR BRAIN IMAGING” (The General Hospital Corporation, priority 2021, published 2024).

How the values were obtained:
SIRT1 [1] = molecular target: T1, SIRT1 (Mus musculus, UniProt Q923E4); assay: Rodent PET/CT baseline imaging and whole body biodistribution; assay type: in vivo; parameters: from tissue; host or cells: brain and other organs of living C57BL/6 mice; details: C57BL/6 mice
T1 sequence (Q923E4 1-737): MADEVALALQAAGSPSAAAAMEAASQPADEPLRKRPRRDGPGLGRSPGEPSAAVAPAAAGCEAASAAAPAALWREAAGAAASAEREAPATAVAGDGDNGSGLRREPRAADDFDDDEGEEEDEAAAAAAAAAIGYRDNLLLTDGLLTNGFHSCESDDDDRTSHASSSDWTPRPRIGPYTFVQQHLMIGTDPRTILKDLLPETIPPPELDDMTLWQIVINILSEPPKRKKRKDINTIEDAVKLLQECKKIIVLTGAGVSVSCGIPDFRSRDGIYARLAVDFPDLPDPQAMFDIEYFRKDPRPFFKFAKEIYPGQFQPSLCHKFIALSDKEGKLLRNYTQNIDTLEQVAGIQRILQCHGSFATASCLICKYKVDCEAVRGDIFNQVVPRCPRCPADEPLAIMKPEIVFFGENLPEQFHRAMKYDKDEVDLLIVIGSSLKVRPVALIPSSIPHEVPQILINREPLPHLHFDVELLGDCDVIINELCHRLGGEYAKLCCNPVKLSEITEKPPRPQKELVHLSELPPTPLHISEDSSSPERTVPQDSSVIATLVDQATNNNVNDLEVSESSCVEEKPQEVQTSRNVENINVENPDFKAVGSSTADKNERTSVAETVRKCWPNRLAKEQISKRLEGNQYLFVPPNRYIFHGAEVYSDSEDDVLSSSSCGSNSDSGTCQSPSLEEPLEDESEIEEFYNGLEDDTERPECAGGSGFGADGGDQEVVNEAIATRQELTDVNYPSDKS
Description: (§1) C57BL/6 mice were used for baseline and blocking studies (25-30 g, male; n=6 for baseline, n=5 for blocking with the pre-treatment of compound 8, and n=6 for blocking with the pre-treatment of Ex-527), and B6SJL wild-type and 5×FAD transgenic mice (20-25 g, male; n=4 for wild-type mice and n=4 for 5×FAD transgenic mice) were included to evaluate the [^11C]8 in a model of AD. All animals were anesthetized with inhalational isoflurane at 3% in a carrier of 2 L/min medical oxygen, and maintained at 2% isoflurane for the duration of the scan. The mice were fixed on the bed of a Triumph Trimodality PET/CT scanner (Gamma Medica, Northridge, CA) in the prone position, and injected with [^11C]8 (150-200 μL, ˜200 μCi) via a lateral tail vein catheterization at the start of PET acquisition. For blocking studies, compound 8 (5 mg/kg, iv) or Ex-527 (5 mg/kg, iv) was injected at 10 min prior to [^11C]8 injection. Dynamic PET acquisition lasted for 60 min and was followed by CT for anatomic coregistration. PET data were reconstructed using a 3D-MLEM method resulting in a full width at half-maximum resolution of 1 mm. Reconstructed images were exported from the scanner in DICOM format along with an anatomic CT. […] Volumes of interests, including the whole brain, striatum, cortex, thalamus, midbrain, cerebellum and brain stem were placed referencing the MRI template software. […] The time-activity curves were expressed as the percentage of injected dose per gram (% ID/g).

SIRT1 [2] = molecular target: T1, SIRT1; assay: Rodent PET/CT blocking studies (in vivo specificity); parameters: from tissue; host or cells: brain and other organs of living C57BL/6 mice; species or system C57BL/6 mice; details: for specific binding in brain: at 60 min
Description: as §1

SIRT1 [3] = molecular target: T1, SIRT1; assay: PET/CT imaging in 5×FAD transgenic mice (AD model); assay type: in vivo; parameters: from tissue; host or cells: brain of living 5×FAD transgenic mice; details: at 3 min
Description: C57BL/6 mice were used for baseline and blocking studies (25-30 g, male; n=6 for baseline, n=5 for blocking with the pre-treatment of compound 8, and n=6 for blocking with the pre-treatment of Ex-527), and B6SJL wild-type and 5×FAD transgenic mice (20-25 g, male; n=4 for wild-type mice and n=4 for 5×FAD transgenic mice) were included to evaluate the [^11C]8 in a model of AD. All animals were anesthetized with inhalational isoflurane at 3% in a carrier of 2 L/min medical oxygen, and maintained at 2% isoflurane for the duration of the scan. The mice were fixed on the bed of a Triumph Trimodality PET/CT scanner (Gamma Medica, Northridge, CA) in the prone position, and injected with [^11C]8 (150-200 μL, ˜200 μCi) via a lateral tail vein catheterization at the start of PET acquisition. For blocking studies, compound 8 (5 mg/kg, iv) or Ex-527 (5 mg/kg, iv) was injected at 10 min prior to [^11C]8 injection. Dynamic PET acquisition lasted for 60 min and was followed by CT for anatomic coregistration. PET data were reconstructed using a 3D-MLEM method resulting in a full width at half-maximum resolution of 1 mm. Reconstructed images were exported from the scanner in DICOM format along with an anatomic CT. […] The time-activity curves were expressed as the percentage of injected dose per gram (% ID/g).

SIRT1 [4] = assay: NHP PET/MR brain imaging; details: baboon
Description: (§2) Atropine 0.05 mg/kg was used intramuscularly to prevent excessive secretion (15 or 30 min of ketamine and xylazine). Anesthesia was induced with intramuscular xylazine (0.5-2.0 mg/kg) and ketamine (10 mg/kg). […] PET/MR images were acquired in a Biograph mMR scanner (Siemens Healthcare, Erlangen, Germany), and PET compatible 8-channel coil arrays for NHP brain imaging with a PET resolution of ˜5 mm at isocenter. Dynamic PET image acquisition was initiated followed by administration of [^11C]8 in a homogeneous solution of 10% ethanol and 90% isotonic saline. A high-resolution structural MRI using [sequence] sequence was acquired about 30 min post-radiotracer administration for anatomical co-registration. Dynamic PET data were acquired and stored in list mode. After corrected for attenuation, scatter, and decay, the PET images were reconstructed using a 3D-OSEM method. […] Volumes of interests were placed referencing the MRI template. Time-activity curves were exported in terms of decay corrected activity at specified time points with gradually increasing intervals. The time-activity curves were expressed as SUV.

[5] = NHP arterial plasma analysis; details: baboon
Description: as §2

[6] = test system: NAD glycohydrolase (NADase); details: at 100 μM; cited from earlier work
[7] = test system: histone deacetylases (HDACs); details: at 100 μM; cited from earlier work
[8] = baseline whole body biodistribution

SMILES	radioactivity in liver and kidney (SIRT1 [1]; [8])	uptake in blood (SIRT1 [1]; [8])	BBB penetration (SIRT1 [1]; baseline)	time to reach plateau of brain time course (SIRT1 [1]; baseline)	maximum radioactivity accumulation in the whole brain (SIRT1 [1]; baseline, iv tail vein)	washout ratio % ID/g 5 min / % ID/g 60 min (SIRT1 [1]; baseline, brain)	brain uptake plateau (SIRT1 [2]; at 5 min, pre-treatment with compound 8 (5 mg/kg, iv))	specific binding in brain (SIRT1 [2]; blocking by pre-treatment with Ex-527 (5 mg/kg, iv) 10 min prior)	specific binding in brain (SIRT1 [2]; self-blocking, pre-treatment with compound 8 (5 mg/kg, iv) 10 min prior)	specific binding in blood, heart and lung (SIRT1 [2]; both blocking experiments)	specific binding in liver and kidney (SIRT1 [2]; both blocking experiments)	brain uptake plateau (SIRT1 [3])	uptake in midbrain (SIRT1 [4])	uptake in thalamus (SIRT1 [4])	peak whole brain uptake (SIRT1 [4]; intravenous)	time to peak concentration in whole brain (SIRT1 [4]; intravenous)	arterial plasma radioactivity remaining (of the total radioactivity) ([5]; after 10 min)	parent compound in plasma (stability in plasma over time) ([5]; at 30 min)	inhibitory effect on NAD glycohydrolase (NADase) [6]	inhibitory effect on class VII histone deacetylases (HDACs) [7]
[11CH3]c1ccc2[nH]c3c(c2c1)CCCC3C(N)=O (centres unmarked) [[^11C]8, 6-[^11C]methyl-2,3,4,9-tetrahydro-1H-carbazole-1-carboxamide]	> 10 % ID/g	relatively low uptake	penetrated the BBB	around 5 min	7.5 % ID/g	1.01	6.0 % ID/g	62%	68%	abundant specific binding	No specific binding	6.3 % ID/g	4.1 SUV	3.6 SUV	greater than 2.9 SUV	approximately 4 min	less than 10%	more than 30%		
NC(=O)C1CCCc2c1[nH]c1ccc(Cl)cc21 (centres unmarked) [Ex-527]																			no inhibitory effect	no inhibitory effect
